# Experimental data from US9943554B2, “Compositions and methods relating to solenopsins and their uses in treating neurological disorders and enhancing physical performance” (priority 2006, dated 2018).
# Like-named read-outs stand apart in the source and are kept apart here.
# Columns and labels:
# Solubility of SPI-001 = type: physicochemical; settings: for solubility: organic solvent or mixture
# Experimental: Based on chemical synthesis of SPI-001 and mass spec analysis, the compound has a molecular weight of <500. It is not a protein or peptide, but is a small molecule. SPI-001 is soluble in dimethyl sulfoxide (DMSO) and ethanol to 100 mg/ml. […] SPI-001 can be resuspended in 25% polyethylene glycol (PEG) 400 for oral delivery.
# MSK1 = MSK1 (Homo sapiens, UniProt O75582); assay: Initial studies: MSK1; type: biochemical
# CamK1δ = CamK1δ (Homo sapiens, UniProt Q8IU85); assay: Initial studies: CamK1δ; type: biochemical
# MAPKAPK2 pathways = assay: Initial studies: MAPKAPK2 pathways; type: biochemical
# Pl3 kinase = assay: Initial studies: Pl3 kinase; type: biochemical
# [1] = biological target: T1, muscarinic receptors (M1) (Homo sapiens, UniProt P11229); assay: CEREP screen: muscarinic receptor M1; type: binding; set-up: dose or concentration left out as unconfirmed
# T1 construct: CEREP
# T1 sequence (P11229 1-460): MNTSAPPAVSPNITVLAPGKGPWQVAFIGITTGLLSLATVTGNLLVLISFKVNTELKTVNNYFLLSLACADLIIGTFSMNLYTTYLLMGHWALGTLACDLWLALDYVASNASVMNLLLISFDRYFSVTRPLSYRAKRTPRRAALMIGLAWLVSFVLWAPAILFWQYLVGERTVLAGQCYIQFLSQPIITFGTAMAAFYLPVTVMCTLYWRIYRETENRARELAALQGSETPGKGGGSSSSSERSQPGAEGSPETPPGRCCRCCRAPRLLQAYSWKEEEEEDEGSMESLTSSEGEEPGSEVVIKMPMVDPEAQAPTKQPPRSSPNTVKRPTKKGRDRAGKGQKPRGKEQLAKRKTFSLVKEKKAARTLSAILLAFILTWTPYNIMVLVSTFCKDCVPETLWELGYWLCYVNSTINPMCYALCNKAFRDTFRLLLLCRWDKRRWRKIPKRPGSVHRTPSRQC
# Experimental: (§1) Recent CEREP screen indicated for SPI-001 ([…]) that it inhibited muscarinic receptors (M1, M2 and M3), Na+ channels and monoamine (NE, DA, and 5-HT) transporters with high affinity (˜90%).
# [2] = biological target: T2, muscarinic receptors (M2) (Homo sapiens, UniProt P08172); assay: CEREP screen: muscarinic receptor M2; type: binding; set-up: dose or concentration left out as unconfirmed
# T2 construct: CEREP
# T2 sequence (P08172 1-466): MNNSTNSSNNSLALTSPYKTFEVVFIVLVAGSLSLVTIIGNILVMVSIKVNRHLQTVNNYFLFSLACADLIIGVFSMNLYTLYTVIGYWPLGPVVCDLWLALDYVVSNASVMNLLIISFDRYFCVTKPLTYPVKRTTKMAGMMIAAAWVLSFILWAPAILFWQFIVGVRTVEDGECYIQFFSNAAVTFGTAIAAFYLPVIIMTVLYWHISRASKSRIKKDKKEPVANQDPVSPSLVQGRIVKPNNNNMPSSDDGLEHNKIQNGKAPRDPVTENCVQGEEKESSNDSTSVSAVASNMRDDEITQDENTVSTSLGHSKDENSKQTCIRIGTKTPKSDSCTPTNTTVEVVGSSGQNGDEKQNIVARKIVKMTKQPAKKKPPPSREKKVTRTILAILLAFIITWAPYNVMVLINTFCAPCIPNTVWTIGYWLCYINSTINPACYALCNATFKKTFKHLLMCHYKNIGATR
# Experimental: as §1
# [3] = biological target: T3, muscarinic receptors (M3) (Homo sapiens, UniProt P20309); assay: CEREP screen: muscarinic receptor M3; type: binding; set-up: dose or concentration left out as unconfirmed
# T3 construct: CEREP
# Experimental: as §1
# Na+ channels = assay: CEREP screen: Na+ channels; type: binding; settings: SPI-001 10 mM
# Experimental: as §1
# [4] = biological target: T4, monoamine (NE) transporters (Homo sapiens, UniProt P23975); assay: CEREP screen: NE transporter; type: binding; set-up: dose or concentration left out as unconfirmed
# T4 construct: CEREP
# Experimental: as §1
# [5] = biological target: T5, monoamine (DA) transporters (Homo sapiens, UniProt Q01959); assay: CEREP screen: DA transporter; type: binding; set-up: dose or concentration left out as unconfirmed
# T5 construct: CEREP
# Experimental: as §1
# [6] = biological target: T6, monoamine (5-HT) transporters (Homo sapiens, UniProt P31645); assay: CEREP screen: 5-HT transporter; type: binding; set-up: dose or concentration left out as unconfirmed
# T6 construct: CEREP
# Experimental: as §1
# Aβ1-42 peptide [7] = assay: Brain and plasma Aβ1-42 peptide levels in APP transgenic mice after single oral administration; type: in vivo
# Source text: (§2) The APP mice (male) used in these experiments were designed by microinjection of the human APP gene (with the Swedish and London mutations) into mouse eggs under the control of the platelet-derived growth factor B (PDGF-B) chain gene promoter. The mice were generated on a C57BL/6 background. Animals were housed in the Medical University of South Carolina Animal Facility under a 12:12 light:dark cycle. Animals were housed in standard non-sterile rodent microisolator cages, with filtered cage tops and housed 4 to a cage. Animals were fed ad libitum and maintained by brother sister mating. Transgenic animals were identified by PCR analysis. The mice generated from this construct develop amyloid deposits starting at 3 months of age. Animals were aged for 3 months and then maintained for 90 days and sacrificed for amyloid quantification.
# (§3) FIG. 2 illustrates the effect of SPI-001 on brain Aβ1-42 peptide levels when administered at 10 mg/kg orally to the APP transgenic mice. Animals were dosed once with SPI-001 and then examined at 0, 4, 24 hours and 7 days for A[…] peptide levels (Biosource International). […] The plasma levels were opposite to the brain levels.
# (§4) Animals were dosed once with SPI-001 and then examined at 0, 4, 24, 48 hours and 7 days for A[…] peptide levels. […] The plasma levels were opposite to the brain levels.
# Aβ1-40 peptide [8] = assay: Brain and plasma Aβ1-40 peptide levels in APP transgenic mice after single oral administration; type: in vivo; settings: single 10 mg/kg oral, compared with Aβ1-42
# Source text: as §2, §3, §4
# Aβ1-42 peptide [9] = assay: Brain and plasma Aβ1-42 peptide levels in guinea pigs after single oral administration; type: in vivo; settings: Guinea Pig, single 10 mg/kg oral
# Experimental: (§5) Animals were dosed once with SPI-001 and then examined at 0, 4, 24, 48 hours and 7 days for AP peptide levels.
# Aβ1-40 peptide [10] = assay: Brain and plasma Aβ1-40 peptide levels in guinea pigs after single oral administration; type: in vivo; settings: Guinea Pig; single 10 mg/kg oral; compared with Aβ1-42
# Experimental: as §5
# Aβ1-42 peptide [11] = assay: Acute administration for 7 days: brain and plasma Aβ1-42 peptide levels; type: in vivo, APP transgenic mice; settings: 10 mg/kg for 7 days in 25% PEG 400, at 7 days
# Experimental: Animals were dosed once with SPI-001 and then examined at 7 days for AP peptide levels.
# APP transgenic mice [12] = assay: Morris water maze test in APP mice treated for 90 days; type: in vivo; settings: 10 mg/kg orally in 25% PEG daily for 3 months (90 days)
# Experimental: Morris water-maze testing. All mice were tested once in the Morris water maze test at the end of the experiment. Mice were trained in a 1.2 m open field water maze. The pool was filled to a depth of 30 cm with water and maintained at 25° C. The escape platform (10 cm square) was placed 1 cm below the surface of the water. During the trials, the platform was removed from the pool. The cued test was carried out in the pool surrounded with white curtains to hide any extra-maze cues. All animals underwent non-spatial pretraining (NSP) for three consecutive days. These trials were to prepare the animals for the final behavioral test to determine the retention of memory to find the platform. These trials were not recorded (for training purposes only). For the training and learning studies, the curtains were removed to add extra-maze cues (this allows for the identification of animals with swimming impairments). On day 1, the mice were placed on the hidden platform for 20 seconds (trial 1), for trials 2-3 animals were released in the water at a distance of 10 cm from the cued-platform or hidden platform (trial 4) and allowed to swim to the platform. […]
# SPI-001 was administered to APP transgenic mice at 10 mg/kg for 3 months to determine the effect upon Aβ peptide and amyloid load. […] Animals were analyzed for behavioral changes associated with drug treatment (FIG. 7). […]
# amyloid load = assay: Amyloid (plaque) load in the brain after repetitive administration for 3 months; type: in vivo; settings: APP transgenic mice; 10 mg/kg orally daily for 3 months; compared to control animals
# Source text: as §2
# (§6) SPI-001 was administered to APP transgenic mice at 10 mg/kg for 3 months to determine the effect upon Aβ peptide and amyloid load. Animals were administered SPI-001 orally in 25% PEG daily and examined for abnormal pathology. […] Animals were analyzed for behavioral changes associated with drug treatment (FIG. 7). […] FIG. 8 illustrates the plaque load in the brains of control and SPI-001 treated animals.
# Aβ peptide = Aβ peptide levels in the brain after repetitive administration for 3 months; type: in vivo; settings: APP transgenic mice; 10 mg/kg orally daily for 3 months; compared to control animals
# Source text: as §2, §6
# APP transgenic mice [13] = assay: Examination for abnormal pathology after repetitive administration for 3 months; type: in vivo; settings: 10 mg/kg orally daily for 3 months
# Experimental: as §6
# [14] = PK profile in plasma and brain of APP transgenic animals; type: in vivo, APP transgenic mice; settings: orally 10 mg/kg
# Experimental: For PK profile, the APP transgenic animals were administered SPI-001, and blood samples and brain tissue were collected and subjected to drug analysis.
# C57BL/6 mice = assay: Selectivity and safety profile in C57BL/6 mice; type: in vivo
# Experimental: Animals (C57BL/6 mice, 5 mice per group) were treated with SPI-001 at 0, 4, 40, and 400 mg/kg in 25% PEG 400 with a single dose and examined 14 days later.
# [15] = 400 mg/kg in 25% PEG 400 for 14 days
# [16] = C57BL/6 mice, single dose 4, 40 and 400 mg/kg in 25% PEG 400, examined 14 days later
# CamK1δ, sequence (Q8IU85 whole entry): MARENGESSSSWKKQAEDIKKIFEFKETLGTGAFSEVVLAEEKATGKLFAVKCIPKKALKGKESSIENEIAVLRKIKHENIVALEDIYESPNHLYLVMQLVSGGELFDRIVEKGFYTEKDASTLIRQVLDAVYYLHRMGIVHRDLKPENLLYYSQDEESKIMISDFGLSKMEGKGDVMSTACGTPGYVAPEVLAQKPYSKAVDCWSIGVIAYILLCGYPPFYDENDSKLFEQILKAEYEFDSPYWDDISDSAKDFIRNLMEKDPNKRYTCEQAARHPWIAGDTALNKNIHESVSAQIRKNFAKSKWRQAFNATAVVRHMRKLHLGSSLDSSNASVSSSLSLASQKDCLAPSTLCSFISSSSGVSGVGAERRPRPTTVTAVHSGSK
# T4 sequence (P23975 whole entry): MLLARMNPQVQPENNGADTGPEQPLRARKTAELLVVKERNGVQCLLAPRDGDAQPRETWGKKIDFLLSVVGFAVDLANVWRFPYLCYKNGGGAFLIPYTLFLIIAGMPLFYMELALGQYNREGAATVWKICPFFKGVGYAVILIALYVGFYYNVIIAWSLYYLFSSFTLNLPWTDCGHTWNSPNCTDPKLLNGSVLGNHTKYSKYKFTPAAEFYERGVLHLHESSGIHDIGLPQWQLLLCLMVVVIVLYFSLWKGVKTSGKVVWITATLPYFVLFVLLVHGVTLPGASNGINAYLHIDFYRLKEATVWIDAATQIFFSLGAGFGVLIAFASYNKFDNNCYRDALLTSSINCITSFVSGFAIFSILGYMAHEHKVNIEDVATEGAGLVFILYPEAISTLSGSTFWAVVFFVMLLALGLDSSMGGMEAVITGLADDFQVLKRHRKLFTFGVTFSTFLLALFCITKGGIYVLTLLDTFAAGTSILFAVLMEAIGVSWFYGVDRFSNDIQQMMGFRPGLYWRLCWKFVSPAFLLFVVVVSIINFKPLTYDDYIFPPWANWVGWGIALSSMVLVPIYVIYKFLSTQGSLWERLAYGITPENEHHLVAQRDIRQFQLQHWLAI
# T6 sequence (P31645 whole entry): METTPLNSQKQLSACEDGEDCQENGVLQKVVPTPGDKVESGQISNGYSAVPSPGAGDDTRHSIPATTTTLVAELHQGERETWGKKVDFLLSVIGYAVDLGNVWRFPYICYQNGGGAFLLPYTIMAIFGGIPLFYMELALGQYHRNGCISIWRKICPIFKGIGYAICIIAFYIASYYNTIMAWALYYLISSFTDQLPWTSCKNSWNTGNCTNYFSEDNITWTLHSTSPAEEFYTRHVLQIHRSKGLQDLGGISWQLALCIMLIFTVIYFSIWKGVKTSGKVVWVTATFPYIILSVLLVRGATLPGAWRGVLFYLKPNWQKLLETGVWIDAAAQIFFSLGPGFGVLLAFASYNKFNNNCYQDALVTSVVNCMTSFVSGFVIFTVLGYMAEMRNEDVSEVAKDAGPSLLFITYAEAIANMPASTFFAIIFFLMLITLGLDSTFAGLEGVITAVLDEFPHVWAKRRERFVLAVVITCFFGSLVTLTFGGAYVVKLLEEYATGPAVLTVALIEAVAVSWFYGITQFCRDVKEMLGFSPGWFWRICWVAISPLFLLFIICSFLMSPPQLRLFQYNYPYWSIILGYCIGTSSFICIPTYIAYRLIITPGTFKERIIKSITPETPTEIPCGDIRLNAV
# MSK1, sequence (O75582 whole entry, species assumed): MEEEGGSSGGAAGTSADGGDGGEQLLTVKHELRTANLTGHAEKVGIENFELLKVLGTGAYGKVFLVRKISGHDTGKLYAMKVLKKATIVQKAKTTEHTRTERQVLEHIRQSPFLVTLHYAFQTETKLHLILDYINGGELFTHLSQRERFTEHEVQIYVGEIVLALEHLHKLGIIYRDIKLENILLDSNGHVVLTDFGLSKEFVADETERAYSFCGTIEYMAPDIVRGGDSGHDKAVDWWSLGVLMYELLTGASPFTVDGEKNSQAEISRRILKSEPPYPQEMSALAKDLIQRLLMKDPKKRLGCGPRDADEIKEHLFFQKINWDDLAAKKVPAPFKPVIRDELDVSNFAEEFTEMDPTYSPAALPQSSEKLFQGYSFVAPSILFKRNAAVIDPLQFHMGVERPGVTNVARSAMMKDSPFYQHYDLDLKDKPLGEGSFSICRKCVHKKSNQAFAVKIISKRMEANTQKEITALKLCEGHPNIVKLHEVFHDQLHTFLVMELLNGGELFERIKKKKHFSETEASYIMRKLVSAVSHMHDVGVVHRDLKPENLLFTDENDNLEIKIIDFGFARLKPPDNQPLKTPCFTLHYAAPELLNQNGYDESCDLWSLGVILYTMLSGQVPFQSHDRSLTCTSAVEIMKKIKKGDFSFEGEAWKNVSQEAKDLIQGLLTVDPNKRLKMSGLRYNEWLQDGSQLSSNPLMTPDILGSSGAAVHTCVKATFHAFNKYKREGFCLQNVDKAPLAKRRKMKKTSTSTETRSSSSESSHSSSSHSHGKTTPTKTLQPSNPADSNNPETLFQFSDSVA
# T3 sequence (P20309 whole entry): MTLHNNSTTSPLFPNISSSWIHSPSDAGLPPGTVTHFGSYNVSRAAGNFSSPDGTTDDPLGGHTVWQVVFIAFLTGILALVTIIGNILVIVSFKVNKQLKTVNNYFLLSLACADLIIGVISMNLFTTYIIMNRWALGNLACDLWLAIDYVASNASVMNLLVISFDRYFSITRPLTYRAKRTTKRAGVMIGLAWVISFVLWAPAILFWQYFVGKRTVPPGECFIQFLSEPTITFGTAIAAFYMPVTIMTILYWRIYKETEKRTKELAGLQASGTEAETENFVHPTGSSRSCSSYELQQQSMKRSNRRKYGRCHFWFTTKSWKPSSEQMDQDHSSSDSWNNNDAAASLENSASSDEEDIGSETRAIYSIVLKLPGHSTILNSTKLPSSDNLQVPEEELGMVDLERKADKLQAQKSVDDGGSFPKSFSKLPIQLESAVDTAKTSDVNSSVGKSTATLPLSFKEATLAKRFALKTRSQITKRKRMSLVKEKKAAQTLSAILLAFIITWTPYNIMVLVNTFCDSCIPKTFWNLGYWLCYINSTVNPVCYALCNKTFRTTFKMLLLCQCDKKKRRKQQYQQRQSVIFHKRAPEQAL
# T5 sequence (Q01959 whole entry): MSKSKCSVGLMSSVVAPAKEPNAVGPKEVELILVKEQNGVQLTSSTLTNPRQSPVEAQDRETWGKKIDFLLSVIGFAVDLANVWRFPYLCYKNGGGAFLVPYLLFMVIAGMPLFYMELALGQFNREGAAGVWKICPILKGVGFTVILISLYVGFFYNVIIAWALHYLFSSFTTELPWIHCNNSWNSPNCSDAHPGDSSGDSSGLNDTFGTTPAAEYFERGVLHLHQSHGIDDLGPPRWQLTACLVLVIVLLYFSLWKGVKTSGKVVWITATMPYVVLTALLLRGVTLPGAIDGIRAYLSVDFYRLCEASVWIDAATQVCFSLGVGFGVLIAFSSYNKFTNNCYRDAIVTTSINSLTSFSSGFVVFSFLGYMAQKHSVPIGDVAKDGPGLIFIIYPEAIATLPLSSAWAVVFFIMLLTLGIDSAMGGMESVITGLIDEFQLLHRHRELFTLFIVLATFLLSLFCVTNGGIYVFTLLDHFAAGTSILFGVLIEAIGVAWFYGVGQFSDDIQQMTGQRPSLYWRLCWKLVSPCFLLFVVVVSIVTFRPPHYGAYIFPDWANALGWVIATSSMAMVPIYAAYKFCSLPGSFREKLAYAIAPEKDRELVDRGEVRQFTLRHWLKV
compound,measurement,setting,value
"CCCCCCCCCCC[C@H]1CCC[C@H](C)N1 (relative stereo) [SPI-001, trans-2-methyl 6-n-undecylpiperidine]",solubility,"Solubility of SPI-001; dimethyl sulfoxide (DMSO), read-out: solubility in dimethyl sulfoxide (DMSO)",100 mg/mL
same,solubility,"Solubility of SPI-001; ethanol, read-out: solubility in ethanol",100 mg/mL
same,solubility in water,Solubility of SPI-001; water,slightly soluble
same,effect on MSK1,MSK1,inhibits
same,effect on CamK1δ,CamK1δ,inhibits
same,effect on MAPKAPK2 pathways,MAPKAPK2 pathways,activating
same,effect on Pl3 kinase,Pl3 kinase,inhibiting
same,inhibition,[1],~90%
same,inhibition,[2],~90%
same,inhibition,[3],~90%
same,inhibition of Na+ channels,Na+ channels,~90%
same,inhibition,[4],~90%
same,inhibition,[5],~90%
same,inhibition,[6],~90%
same,brain Aβ1-42 peptide levels,"Aβ1-42 peptide [7]; single 10 mg/kg oral in 25% PEG 400, 4 hr",decreased
same,plasma Aβ1-42 peptide levels,"Aβ1-42 peptide [7]; single 10 mg/kg oral, 4 hr",increased
same,brain Aβ1-42 peptide levels,"Aβ1-42 peptide [7]; single 10 mg/kg oral, 24 hours",continued to decrease
same,plasma Aβ1-42 peptide levels,"Aβ1-42 peptide [7]; single 10 mg/kg oral, 24 hours",continued to increase
same,brain Aβ1-42 peptide levels,"Aβ1-42 peptide [7]; single 10 mg/kg oral, 48 hours",returned to control levels
same,plasma Aβ1-42 peptide levels,"Aβ1-42 peptide [7]; single 10 mg/kg oral, 48 hours",returned to control levels
same,brain Aβ1-42 peptide levels,"Aβ1-42 peptide [7]; single 10 mg/kg oral, 7 days",returned to control levels
same,plasma Aβ1-42 peptide levels,"Aβ1-42 peptide [7]; single 10 mg/kg oral, 7 days",returned to control levels
same,brain Aβ1-40 peptide levels,Aβ1-40 peptide [8],same levels of decrease in the brain
same,plasma Aβ1-40 peptide levels,Aβ1-40 peptide [8],increase in the plasma
same,brain Aβ1-42 peptide levels,Aβ1-42 peptide [9]; 4 hr,decreased
same,plasma Aβ1-42 peptide levels,Aβ1-42 peptide [9]; 4 hr,increased
same,brain Aβ1-42 peptide levels,Aβ1-42 peptide [9]; 24 hours,continued to decrease
same,plasma Aβ1-42 peptide levels,Aβ1-42 peptide [9]; 24 hours,continued to increase
same,brain Aβ1-42 peptide levels,Aβ1-42 peptide [9]; 48 hours,returned to control levels
same,plasma Aβ1-42 peptide levels,Aβ1-42 peptide [9]; 48 hours,returned to control levels
same,brain Aβ1-42 peptide levels,Aβ1-42 peptide [9]; 7 days,returned to control levels
same,plasma Aβ1-42 peptide levels,Aβ1-42 peptide [9]; 7 days,returned to control levels
same,brain Aβ1-40 peptide levels,Aβ1-40 peptide [10],same levels of decrease in the brain
same,plasma Aβ1-40 peptide levels,Aβ1-40 peptide [10],increase in the plasma
same,brain Aβ1-42 peptide levels,Aβ1-42 peptide [11]; compared to control animals given 25% PEG only,decreased
same,plasma Aβ1-42 peptide levels,Aβ1-42 peptide [11]; compared to control levels,increased
same,behavior in the Morris Water Maze,APP transgenic mice [12],improvement in behavior
same,amyloid load,amyloid load,significantly reduced
same,Aβ peptide levels,Aβ peptide,significantly reduced
same,"systemic pathological features (liver, kidney, heart, lungs, intestine)",APP transgenic mice [13],did not show any signs of systemic pathological features
same,SPI-001 levels in brain,[14],increased significantly
same,SPI-001 levels in plasma,[14],increased significantly
same,time SPI-001 levels were maintained in brain,[14],approximately 24 hours
same,time SPI-001 levels were maintained in plasma,[14],approximately 24 hours
same,course of body weight changes,C57BL/6 mice; [15],stopped by 14 days and reversed
same,gross behavioral deficits,C57BL/6 mice; [15],no gross behavioral deficits
same,histological abnormalities in the tissues examined,C57BL/6 mice; [15],no histological abnormalities
same,body weight over the 14 days,"C57BL/6 mice; 400 mg/kg in 25% PEG 400 for 14 days, 25% PEG animals showed a similar profile",slight decrease in body weight
same,gross behavioral deficits upon visual inspection (daily),C57BL/6 mice; [16],no gross behavioral deficits
same,"histological analysis of tissues (brain, liver, kidney, heart, intestine, lungs)",C57BL/6 mice; [16],did not show any abnormal structures
